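96-well plates; 48 h exposure; 5 concentrations. Endpoints by linear interpolation between flanking doses. Not reached: highest tested concentration assigned. The concentration for 50% growth inhibition is given as GI50. TGI is the concentration that stops growth completely.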
Experiments:
Assay in all cases: NCI-60 cell line screen, 48 h
SK-OV-3 ovarian = tested on: SK-OV-3 ovarian
RXF 393 renal = tested on: RXF 393 renal
UO-31 renal = tested on: UO-31 renal
M14 melanoma = tested on: M14 melanoma
A549 NSCLC = tested on: A549 NSCLC
HT29 colon = tested on: HT29 colon
HOP-92 NSCLC = tested on: HOP-92 NSCLC
SK-MEL-2 melanoma = tested on: SK-MEL-2 melanoma
UACC-62 melanoma = tested on: UACC-62 melanoma
IGROV1 ovarian = tested on: IGROV1 ovarian
HCT-15 colon = tested on: HCT-15 colon
HS 578T breast = tested on: HS 578T breast
MCF7 breast = tested on: MCF7 breast
BT-549 breast = tested on: BT-549 breast
MDA-MB-231 breast = tested on: MDA-MB-231 breast
SF-268 CNS = tested on: SF-268 CNS
SN12C renal = tested on: SN12C renal
DU-145 prostate = tested on: DU-145 prostate
SW-620 colon = tested on: SW-620 colon
COLO 205 colon = tested on: COLO 205 colon
CAKI-1 renal = tested on: CAKI-1 renal
NCI/ADR-RES ovarian = tested on: NCI/ADR-RES ovarian
PC-3 prostate = tested on: PC-3 prostate
NCI-H460 lung = tested on: NCI-H460 lung
SNB-75 CNS = tested on: SNB-75 CNS
NCI-H23 lung = tested on: NCI-H23 lung
NCI-H522 lung = tested on: NCI-H522 lung
KM12 colon = tested on: KM12 colon
HOP-62 NSCLC = tested on: HOP-62 NSCLC
MDA-MB-435 = tested on: MDA-MB-435
LOX IMVI melanoma = tested on: LOX IMVI melanoma
SK-MEL-5 melanoma = tested on: SK-MEL-5 melanoma
EKVX NSCLC = tested on: EKVX NSCLC
UACC-257 melanoma = tested on: UACC-257 melanoma
TK-10 renal = tested on: TK-10 renal
HCT-116 colon = tested on: HCT-116 colon
MOLT-4 leukemia = tested on: MOLT-4 leukemia
OVCAR-3 ovarian = tested on: OVCAR-3 ovarian
HCC-2998 colon = tested on: HCC-2998 colon
ACHN renal = tested on: ACHN renal
786-0 renal = tested on: 786-0 renal
MALME-3M melanoma = tested on: MALME-3M melanoma
OVCAR-4 ovarian = tested on: OVCAR-4 ovarian
SK-MEL-28 melanoma = tested on: SK-MEL-28 melanoma
OVCAR-5 ovarian = tested on: OVCAR-5 ovarian
SF-295 CNS = tested on: SF-295 CNS
SNB-19 CNS = tested on: SNB-19 CNS
NCI-H226 lung = tested on: NCI-H226 lung
U251 CNS = tested on: U251 CNS
OVCAR-8 ovarian = tested on: OVCAR-8 ovarian
K-562 leukemia = tested on: K-562 leukemia

O=C1C=CC(=O)c2cc3cc(CO)ccc3cc21
GI50 (SK-OV-3 ovarian): 31.9 µM | TGI (SK-OV-3 ovarian): > 100 µM | GI50 (RXF 393 renal): 14.6 µM | TGI (RXF 393 renal): 29.9 µM | GI50 (UO-31 renal): 2.35 µM | TGI (UO-31 renal): 4.58 µM | GI50 (M14 melanoma): 14.4 µM | TGI (M14 melanoma): 27.5 µM | GI50 (A549 NSCLC): 19.3 µM | TGI (A549 NSCLC): 45.1 µM | GI50 (HT29 colon): 10.9 µM | TGI (HT29 colon): > 100 µM | GI50 (HOP-92 NSCLC): 2.76 µM | TGI (HOP-92 NSCLC): 6.51 µM | GI50 (SK-MEL-2 melanoma): 16.8 µM | TGI (SK-MEL-2 melanoma): 32.8 µM | GI50 (UACC-62 melanoma): 17.9 µM | TGI (UACC-62 melanoma): 31.8 µM | GI50 (IGROV1 ovarian): 8.79 µM | TGI (IGROV1 ovarian): 26 µM | GI50 (HCT-15 colon): 15.1 µM | TGI (HCT-15 colon): 28.4 µM | GI50 (HS 578T breast): 21.3 µM | TGI (HS 578T breast): 55.4 µM | GI50 (MCF7 breast): 14.5 µM | TGI (MCF7 breast): 33.3 µM | GI50 (BT-549 breast): 12.9 µM | TGI (BT-549 breast): 25.7 µM | GI50 (MDA-MB-231 breast): 11.5 µM | TGI (MDA-MB-231 breast): 24.9 µM | GI50 (SF-268 CNS): 16.7 µM | TGI (SF-268 CNS): 34.7 µM | GI50 (SN12C renal): 5.76 µM | TGI (SN12C renal): 15.8 µM | GI50 (DU-145 prostate): 1.1 µM | TGI (DU-145 prostate): 2.54 µM | GI50 (SW-620 colon): 1.51 µM | TGI (SW-620 colon): 2.91 µM | GI50 (COLO 205 colon): 11.1 µM | TGI (COLO 205 colon): 49.5 µM | GI50 (CAKI-1 renal): 3.48 µM | TGI (CAKI-1 renal): 10.3 µM | GI50 (NCI/ADR-RES ovarian): 19.5 µM | TGI (NCI/ADR-RES ovarian): 36.2 µM | GI50 (PC-3 prostate): 16.2 µM | TGI (PC-3 prostate): 34.1 µM | GI50 (NCI-H460 lung): 19.1 µM | TGI (NCI-H460 lung): 39.8 µM | GI50 (SNB-75 CNS): 19.9 µM | TGI (SNB-75 CNS): 48.6 µM | GI50 (NCI-H23 lung): 15.8 µM | TGI (NCI-H23 lung): 29.2 µM | GI50 (NCI-H522 lung): 9.48 µM | TGI (NCI-H522 lung): 26.4 µM | GI50 (KM12 colon): 19.3 µM | TGI (KM12 colon): 51.3 µM | GI50 (HOP-62 NSCLC): 17.3 µM | TGI (HOP-62 NSCLC): 31.1 µM | GI50 (MDA-MB-435): 10.4 µM | TGI (MDA-MB-435): 23.6 µM | GI50 (LOX IMVI melanoma): 1.94 µM | TGI (LOX IMVI melanoma): 4.1 µM | GI50 (SK-MEL-5 melanoma): 10.9 µM | TGI (SK-MEL-5 melanoma): 22.9 µM | GI50 (EKVX NSCLC): 14.5 µM | TGI (EKVX NSCLC): 28.1 µM | GI50 (UACC-257 melanoma): 12 µM | TGI (UACC-257 melanoma): 27.2 µM | GI50 (TK-10 renal): 15.5 µM | TGI (TK-10 renal): 30 µM | GI50 (HCT-116 colon): 1.82 µM | TGI (HCT-116 colon): 3.22 µM | GI50 (MOLT-4 leukemia): 0.621 µM | TGI (MOLT-4 leukemia): > 100 µM | GI50 (OVCAR-3 ovarian): 1.71 µM | TGI (OVCAR-3 ovarian): 4.2 µM | GI50 (HCC-2998 colon): 4.42 µM | TGI (HCC-2998 colon): 14.1 µM | GI50 (ACHN renal): 3.22 µM | TGI (ACHN renal): 10.8 µM | GI50 (786-0 renal): 1.74 µM | TGI (786-0 renal): 3.31 µM | GI50 (MALME-3M melanoma): 11.5 µM | TGI (MALME-3M melanoma): 26.1 µM | GI50 (OVCAR-4 ovarian): 5.55 µM | TGI (OVCAR-4 ovarian): 24.7 µM | GI50 (SK-MEL-28 melanoma): 29.5 µM | TGI (SK-MEL-28 melanoma): > 100 µM | GI50 (OVCAR-5 ovarian): 20.5 µM | TGI (OVCAR-5 ovarian): 55.6 µM | GI50 (SF-295 CNS): 20 µM | TGI (SF-295 CNS): 37.8 µM | GI50 (SNB-19 CNS): 20 µM | TGI (SNB-19 CNS): 66.8 µM | GI50 (NCI-H226 lung): 16.7 µM | TGI (NCI-H226 lung): 31.5 µM | GI50 (U251 CNS): 15.4 µM | TGI (U251 CNS): 28.7 µM | GI50 (OVCAR-8 ovarian): 2.94 µM | TGI (OVCAR-8 ovarian): 11.2 µM | GI50 (K-562 leukemia): 1.06 µM | TGI (K-562 leukemia): 3.04 µM

From PubChem BioAssay (NCI)
